One block for each compound: values may come before it.
Test system: 596521-263-R-J1-PDC complex spheroid growth
Assay: Anticancer human tumor 596521-263-R-J1-PDC patient-derived soft tissue sarcoma cell line growth inhibition [Asc]
Details: for IC50: curve of first compound; for viability, T/C: stronger effect = lower value
In short: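 Tumor cells were grown as complex spheroids with human endothelial cells (HUVEC) and human mesenchymal stem cells as stroma. Agents were tested alone and in combination, in half-log steps down from the clinical Cmax, or from 10 microM where Cmax was unknown.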

[1] = second compound 0.0316 µM, first compound 0.0316 µM
[2] = second compound 0.0316 µM, first compound 0.1 µM
[3] = second compound 0.0316 µM, first compound 0.316 µM
[4] = second compound 0.0316 µM, first compound 1 µM
[5] = second compound 0.1 µM, first compound 0.0316 µM
[6] = second compound 0.1 µM, first compound 0.1 µM
[7] = second compound 0.1 µM, first compound 0.316 µM
[8] = second compound 0.1 µM, first compound 1 µM
[9] = second compound 0.316 µM, first compound 0.0316 µM
[10] = second compound 0.316 µM, first compound 0.1 µM
[11] = second compound 0.316 µM, first compound 0.316 µM
[12] = second compound 0.316 µM, first compound 1 µM
[13] = second compound 1 µM, first compound 0.0316 µM
[14] = second compound 1 µM, first compound 0.1 µM
[15] = second compound 1 µM, first compound 0.316 µM
[16] = second compound 1 µM, first compound 1 µM
[17] = second compound 3.16 µM, first compound 0.0316 µM
[18] = second compound 3.16 µM, first compound 0.1 µM
[19] = second compound 3.16 µM, first compound 0.316 µM
[20] = second compound 3.16 µM, first compound 1 µM
[21] = second compound 10 µM, first compound 0.0316 µM
[22] = second compound 10 µM, first compound 0.1 µM
[23] = second compound 10 µM, first compound 0.316 µM
[24] = second compound 10 µM, first compound 1 µM
[25] = second compound 0.0316 µM, first compound 0.00316 µM
[26] = second compound 0.0316 µM, first compound 0.01 µM
[27] = second compound 0.1 µM, first compound 0.00316 µM
[28] = second compound 0.1 µM, first compound 0.01 µM
[29] = second compound 0.316 µM, first compound 0.00316 µM
[30] = second compound 0.316 µM, first compound 0.01 µM
[31] = second compound 1 µM, first compound 0.00316 µM
[32] = second compound 1 µM, first compound 0.01 µM
[33] = second compound 3.16 µM, first compound 0.00316 µM
[34] = second compound 3.16 µM, first compound 0.01 µM
[35] = second compound 10 µM, first compound 0.00316 µM
[36] = second compound 10 µM, first compound 0.01 µM
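Also: spheroids exposed to compounds for 7 days.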

- IC50 (second compound 0.0316 µM): > 10000 nM
- IC50 (second compound 0.1 µM): > 10000 nM
- IC50 (second compound 0.316 µM): > 10000 nM
- IC50 (second compound 1 µM): 6360 nM
- IC50 (second compound 3.16 µM): 2980 nM
- IC50 (second compound 10 µM): 1350 nM
SMILES: C=CC(=O)N1CCN(c2nc(=O)n(-c3c(C)ccnc3C(C)C)c3nc(-c4c(O)cccc4F)c(F)cc23)C(C)C1 (stereo unspecified) + Cc1c(S(C)(=O)=O)c(-c2cc(F)cc(N3CCN(c4ccc(NS(=O)(=O)c5ccc(NC(CCN6CCC(C(=O)OCCCP(=O)(O)O)CC6)CSc6ccccc6)c(S(=O)(=O)C(F)(F)F)c5)cc4)CC3)c2)c(-c2ccc(Cl)cc2)n1C(C)C
- viability, T/C [1]: 83.2%
- viability, T/C [2]: 84.6%
- viability, T/C [3]: 95%
- viability, T/C [4]: 98.9%
- viability, T/C (second compound 0.0316 µM, first compound 3.16 µM): 94.9%
- viability, T/C (second compound 0.0316 µM, first compound 10 µM): 65.8%
- viability, T/C [5]: 87.3%
- viability, T/C [6]: 93.9%
- viability, T/C [7]: 93.6%
- viability, T/C [8]: 107%
- viability, T/C (second compound 0.1 µM, first compound 3.16 µM): 95.8%
- viability, T/C (second compound 0.1 µM, first compound 10 µM): 63%
- viability, T/C [9]: 83.7%
- viability, T/C [10]: 82.5%
- viability, T/C [11]: 80.1%
- viability, T/C [12]: 99.9%
- viability, T/C (second compound 0.316 µM, first compound 3.16 µM): 87.1%
- viability, T/C (second compound 0.316 µM, first compound 10 µM): 59.9%
- viability, T/C [13]: 82.3%
- viability, T/C [14]: 75.9%
- viability, T/C [15]: 81%
- viability, T/C [16]: 73.5%
- viability, T/C (second compound 1 µM, first compound 3.16 µM): 70.5%
- viability, T/C (second compound 1 µM, first compound 10 µM): 37.1%
- viability, T/C [17]: 66.6%
- viability, T/C [18]: 63%
- viability, T/C [19]: 62.6%
- viability, T/C [20]: 63.4%
- viability, T/C (second compound 3.16 µM, first compound 3.16 µM): 49.3%
- viability, T/C (second compound 3.16 µM, first compound 10 µM): 36%
- viability, T/C [21]: 55.9%
- viability, T/C [22]: 53%
- viability, T/C [23]: 60.1%
- viability, T/C [24]: 52.4%
- viability, T/C (second compound 10 µM, first compound 3.16 µM): 40.8%
- viability, T/C (second compound 10 µM, first compound 10 µM): 30.6%

- IC50 (second compound 0.0316 µM): 211 nM
- IC50 (second compound 0.1 µM): 142 nM
- IC50 (second compound 0.316 µM): 138 nM
- IC50 (second compound 1 µM): 73.7 nM
- IC50 (second compound 3.16 µM): 55.3 nM
- IC50 (second compound 10 µM): 8.21 nM
SMILES: COc1c(OCCCN2CCOCC2)ccc2c3n(c(=NC(=O)c4cnc(N)nc4)nc12)CCN3 + Cc1c(S(C)(=O)=O)c(-c2cc(F)cc(N3CCN(c4ccc(NS(=O)(=O)c5ccc(NC(CCN6CCC(C(=O)OCCCP(=O)(O)O)CC6)CSc6ccccc6)c(S(=O)(=O)C(F)(F)F)c5)cc4)CC3)c2)c(-c2ccc(Cl)cc2)n1C(C)C
- viability, T/C [25]: 95.5%
- viability, T/C [26]: 90.8%
- viability, T/C [1]: 79.2%
- viability, T/C [2]: 67.3%
- viability, T/C [3]: 39.9%
- viability, T/C [4]: 29.4%
- viability, T/C [27]: 89.6%
- viability, T/C [28]: 92.5%
- viability, T/C [5]: 84.2%
- viability, T/C [6]: 54.6%
- viability, T/C [7]: 37.6%
- viability, T/C [8]: 25.6%
- viability, T/C [29]: 85.6%
- viability, T/C [30]: 84.2%
- viability, T/C [9]: 65.9%
- viability, T/C [10]: 58.1%
- viability, T/C [11]: 36.1%
- viability, T/C [12]: 25.4%
- viability, T/C [31]: 91.6%
- viability, T/C [32]: 76.1%
- viability, T/C [13]: 62%
- viability, T/C [14]: 47%
- viability, T/C [15]: 31.3%
- viability, T/C [16]: 24.9%
- viability, T/C [33]: 61.5%
- viability, T/C [34]: 62.9%
- viability, T/C [17]: 55.9%
- viability, T/C [18]: 43.1%
- viability, T/C [19]: 27.1%
- viability, T/C [20]: 18.5%
- viability, T/C [35]: 52.4%
- viability, T/C [36]: 50%
- viability, T/C [21]: 42.9%
- viability, T/C [22]: 41.2%
- viability, T/C [23]: 24.8%
- viability, T/C [24]: 13.4%

- IC50 (second compound 0.0316 µM): > 100 nM
- IC50 (second compound 0.1 µM): > 100 nM
- IC50 (second compound 0.316 µM): > 100 nM
- IC50 (second compound 1 µM): > 100 nM
- IC50 (second compound 3.16 µM): > 100 nM
- IC50 (second compound 10 µM): < 0.316 nM
SMILES: NC1CCC(NC2CC2c2ccccc2)CC1 (stereo unspecified) + Cc1c(S(C)(=O)=O)c(-c2cc(F)cc(N3CCN(c4ccc(NS(=O)(=O)c5ccc(NC(CCN6CCC(C(=O)OCCCP(=O)(O)O)CC6)CSc6ccccc6)c(S(=O)(=O)C(F)(F)F)c5)cc4)CC3)c2)c(-c2ccc(Cl)cc2)n1C(C)C
- viability, T/C (second compound 0.0316 µM, first compound 0.000316 µM): 79.8%
- viability, T/C (second compound 0.0316 µM, first compound 0.001 µM): 88.9%
- viability, T/C [25]: 80.2%
- viability, T/C [26]: 90.4%
- viability, T/C [1]: 89.2%
- viability, T/C [2]: 80.6%
- viability, T/C (second compound 0.1 µM, first compound 0.000316 µM): 86.7%
- viability, T/C (second compound 0.1 µM, first compound 0.001 µM): 91.8%
- viability, T/C [27]: 77.5%
- viability, T/C [28]: 89.7%
- viability, T/C [5]: 86.5%
- viability, T/C [6]: 80.8%
- viability, T/C (second compound 0.316 µM, first compound 0.000316 µM): 84.1%
- viability, T/C (second compound 0.316 µM, first compound 0.001 µM): 77.6%
- viability, T/C [29]: 75.9%
- viability, T/C [30]: 77.9%
- viability, T/C [9]: 76.7%
- viability, T/C [10]: 75.7%
- viability, T/C (second compound 1 µM, first compound 0.000316 µM): 81.2%
- viability, T/C (second compound 1 µM, first compound 0.001 µM): 75.8%
- viability, T/C [31]: 66.3%
- viability, T/C [32]: 72.7%
- viability, T/C [13]: 68.7%
- viability, T/C [14]: 74.1%
- viability, T/C (second compound 3.16 µM, first compound 0.000316 µM): 69.1%
- viability, T/C (second compound 3.16 µM, first compound 0.001 µM): 55.7%
- viability, T/C [33]: 51.9%
- viability, T/C [34]: 58.9%
- viability, T/C [17]: 55.4%
- viability, T/C [18]: 53.4%
- viability, T/C (second compound 10 µM, first compound 0.000316 µM): 48.6%
- viability, T/C (second compound 10 µM, first compound 0.001 µM): 42.9%
- viability, T/C [35]: 44.2%
- viability, T/C [36]: 49%
- viability, T/C [21]: 35.7%
- viability, T/C [22]: 43%
